ChEMBL document CHEMBL5696442, “Discovery of type II inhibitors of TGFβ-activated kinase 1 (TAK1) and mitogen-activated protein kinase kinase kinase kinase 2 (MAP4K2)” (J Med Chem, 2015)
Active and inactive are the calls of the source. The calls are words filed in the database; no cut-off is given here.

How the values were obtained:
[1] = target: 5'-AMP-activated protein kinase catalytic subunit alpha-2 (Homo sapiens) (UniProt P54646); assay: Inhibition of AMPK-alpha2 (unknown origin) at 10 uM by Ambit Kinomescan binding assay
[2] = system: Serine/threonine-protein kinase B-raf (Homo sapiens), P15056 [V600E]; assay: Inhibition of BRAF V600E mutant (unknown origin) at 10 uM by Ambit Kinomescan binding assay relative to control
[3] = target: Death-associated protein kinase 2 (Homo sapiens) (UniProt Q9UIK4); assay: Inhibition of DAPK2 (unknown origin) at 10 uM by Ambit Kinomescan binding assay
[4] = system: Epidermal growth factor receptor (Homo sapiens), P00533 [UNDEFINED MUTATION]; assay: Inhibition of EGFR L747-E749del/A750P mutant (unknown origin) at 10 uM by Ambit Kinomescan binding assay relative to control
[5] = target: Serine/threonine-protein kinase RIO2 (Homo sapiens) (UniProt Q9BVS4); assay: Inhibition of RIOK2 (unknown origin) at 1 uM by Ambit Kinomescan binding assay relative to control
[6] = target: Serine/threonine-protein kinase 35 (Homo sapiens) (UniProt Q8TDR2); assay: Inhibition of STK35 (unknown origin) at 1 uM by Ambit Kinomescan binding assay relative to control
[7] = target: Wee1-like protein kinase 2 (Homo sapiens) (UniProt P0C1S8); assay: Inhibition of WEE2 (unknown origin) at 1 uM by Ambit Kinomescan binding assay relative to control
[8] = target: RAC-beta serine/threonine-protein kinase (Homo sapiens) (UniProt P31751); assay: Inhibition of AKT2 ATP Loop labeling site in human A-375 cells at 5 uM by KiNativ Profiling analysis relative to control; assay type: cell-based
[9] = target: Mitogen-activated protein kinase 11 (Homo sapiens) (UniProt Q15759); assay: Inhibition of p38 beta in human A-375 cells at 5 uM by KiNativ Profiling analysis relative to control; assay type: cell-based
[10] = target: Ephrin type-A receptor 8 (Homo sapiens) (UniProt P29322); assay: Inhibition of EPHA8 (unknown origin) at 1 uM by Ambit Kinomescan binding assay relative to control; values are per cent of control
[11] = target: Myosin light chain kinase 2, skeletal/cardiac muscle (Homo sapiens) (UniProt Q9H1R3); assay: Inhibition of MYLK2 (unknown origin) at 1 uM by Ambit Kinomescan binding assay relative to control; values are per cent of control
[12] = target: Cyclin-dependent kinase 4/cyclin D1 (Homo sapiens) (UniProt P11802+P24385); assay: Inhibition of CDK4/cyclinD1 (unknown origin) at 1 uM by Ambit Kinomescan binding assay relative to control; values are per cent of control
[13] = target: Calcium/calmodulin-dependent protein kinase type II subunit gamma (Homo sapiens) (UniProt Q13555); assay: Inhibition of CaMK2g Lys1 labeling site harbouring TSTQEYAAKIINTK in human Huh-7 cell lysate at 1 uM by KiNativ Profiling analysis relative to control; assay type: subcellular
[14] = target: Ribosomal protein S6 kinase alpha-5 (Homo sapiens) (UniProt O75582); assay: Inhibition of MSK1 domain1 ATP labeling site in human Huh-7 cell lysate at 1 uM by KiNativ Profiling analysis relative to control; assay type: subcellular
[15] = target: T1, Serine/threonine-protein kinase Nek9 (Homo sapiens) (UniProt Q8TD19); assay: Inhibition of NEK9 Lys2 labeling site in human Huh-7 cell lysate at 1 uM by KiNativ Profiling analysis relative to control; assay type: subcellular
T1 sequence (whole entry): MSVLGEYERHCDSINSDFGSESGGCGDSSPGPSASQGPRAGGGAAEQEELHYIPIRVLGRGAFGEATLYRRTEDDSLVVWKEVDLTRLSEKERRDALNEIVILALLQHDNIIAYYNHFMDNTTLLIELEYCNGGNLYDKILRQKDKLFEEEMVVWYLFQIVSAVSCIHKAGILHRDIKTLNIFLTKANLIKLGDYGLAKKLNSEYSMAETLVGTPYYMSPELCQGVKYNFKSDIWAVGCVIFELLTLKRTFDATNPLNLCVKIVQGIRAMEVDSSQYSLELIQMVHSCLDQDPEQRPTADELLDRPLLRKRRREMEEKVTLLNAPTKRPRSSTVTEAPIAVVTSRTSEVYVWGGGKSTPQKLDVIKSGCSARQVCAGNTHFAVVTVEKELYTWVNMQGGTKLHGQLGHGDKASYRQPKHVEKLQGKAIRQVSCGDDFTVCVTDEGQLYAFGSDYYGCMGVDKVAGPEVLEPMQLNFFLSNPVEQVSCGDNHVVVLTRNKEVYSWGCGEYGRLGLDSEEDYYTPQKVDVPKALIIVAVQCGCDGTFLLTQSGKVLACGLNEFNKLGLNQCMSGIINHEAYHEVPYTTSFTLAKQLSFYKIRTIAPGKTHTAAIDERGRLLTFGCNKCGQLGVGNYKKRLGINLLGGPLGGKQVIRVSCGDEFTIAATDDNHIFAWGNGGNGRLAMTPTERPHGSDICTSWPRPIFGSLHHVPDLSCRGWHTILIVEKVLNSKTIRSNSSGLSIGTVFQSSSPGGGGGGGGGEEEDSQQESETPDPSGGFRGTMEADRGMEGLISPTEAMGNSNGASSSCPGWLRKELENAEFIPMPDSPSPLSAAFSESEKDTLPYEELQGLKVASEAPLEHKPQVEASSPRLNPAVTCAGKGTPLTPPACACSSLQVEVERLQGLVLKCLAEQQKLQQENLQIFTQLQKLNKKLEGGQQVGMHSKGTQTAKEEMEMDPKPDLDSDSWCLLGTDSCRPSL

[16] = target: Casein kinase I isoform delta (Homo sapiens) (UniProt P48730); assay: Inhibition of CK1d Lys2 labeling site in human Huh-7 cells at 1 uM by KiNativ Profiling analysis relative to control; assay type: cell-based
[17] = target: Serine/threonine-protein kinase Nek7 (Homo sapiens) (UniProt Q8TDX7); assay: Inhibition of NEK7 Lys2 labeling site harbouring VMHRDIKPANVFITATGVVK in human Huh-7 cells at 1 uM by KiNativ Profiling analysis relative to control; assay type: cell-based
Sequence of Serine/threonine-protein kinase Nek7 (Homo sapiens) (Q8TDX7 whole entry, looked up): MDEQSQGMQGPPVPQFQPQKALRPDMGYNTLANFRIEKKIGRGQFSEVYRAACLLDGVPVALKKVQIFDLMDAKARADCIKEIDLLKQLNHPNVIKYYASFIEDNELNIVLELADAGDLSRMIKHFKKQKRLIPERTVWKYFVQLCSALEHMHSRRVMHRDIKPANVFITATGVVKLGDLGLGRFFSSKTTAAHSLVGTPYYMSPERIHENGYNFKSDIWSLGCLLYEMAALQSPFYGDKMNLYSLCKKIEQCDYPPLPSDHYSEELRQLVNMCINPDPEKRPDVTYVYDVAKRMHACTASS

Sequence of Casein kinase I isoform delta (Homo sapiens) (P48730 whole entry, looked up, canonical isoform): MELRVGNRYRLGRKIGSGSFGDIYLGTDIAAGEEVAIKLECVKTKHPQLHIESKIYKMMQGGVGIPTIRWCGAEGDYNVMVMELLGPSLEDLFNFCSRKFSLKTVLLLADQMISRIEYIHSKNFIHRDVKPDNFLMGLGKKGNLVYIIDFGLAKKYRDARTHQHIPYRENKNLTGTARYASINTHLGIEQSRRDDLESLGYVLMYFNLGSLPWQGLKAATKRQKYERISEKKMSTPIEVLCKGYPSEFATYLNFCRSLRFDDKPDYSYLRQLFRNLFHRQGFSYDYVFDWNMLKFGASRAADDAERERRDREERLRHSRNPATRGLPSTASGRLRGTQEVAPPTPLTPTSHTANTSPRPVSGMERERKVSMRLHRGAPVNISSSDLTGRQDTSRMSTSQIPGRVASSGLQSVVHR
Sequence of Serine/threonine-protein kinase 35 (Homo sapiens) (Q8TDR2 whole entry): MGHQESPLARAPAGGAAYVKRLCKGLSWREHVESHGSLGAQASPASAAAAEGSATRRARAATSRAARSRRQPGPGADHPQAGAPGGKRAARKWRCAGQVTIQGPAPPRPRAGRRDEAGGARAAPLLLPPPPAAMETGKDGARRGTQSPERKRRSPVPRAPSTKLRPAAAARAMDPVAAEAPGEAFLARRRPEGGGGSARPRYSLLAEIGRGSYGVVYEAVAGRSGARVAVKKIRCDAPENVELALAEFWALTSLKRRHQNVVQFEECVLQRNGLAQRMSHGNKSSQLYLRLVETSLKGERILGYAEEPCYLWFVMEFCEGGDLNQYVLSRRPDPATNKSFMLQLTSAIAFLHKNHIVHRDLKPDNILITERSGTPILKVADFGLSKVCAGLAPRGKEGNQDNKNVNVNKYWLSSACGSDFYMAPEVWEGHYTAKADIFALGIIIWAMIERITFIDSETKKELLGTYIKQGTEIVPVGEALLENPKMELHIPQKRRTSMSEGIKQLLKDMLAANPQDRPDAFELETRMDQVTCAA
Sequence of Death-associated protein kinase 2 (Homo sapiens) (Q9UIK4 whole entry, looked up): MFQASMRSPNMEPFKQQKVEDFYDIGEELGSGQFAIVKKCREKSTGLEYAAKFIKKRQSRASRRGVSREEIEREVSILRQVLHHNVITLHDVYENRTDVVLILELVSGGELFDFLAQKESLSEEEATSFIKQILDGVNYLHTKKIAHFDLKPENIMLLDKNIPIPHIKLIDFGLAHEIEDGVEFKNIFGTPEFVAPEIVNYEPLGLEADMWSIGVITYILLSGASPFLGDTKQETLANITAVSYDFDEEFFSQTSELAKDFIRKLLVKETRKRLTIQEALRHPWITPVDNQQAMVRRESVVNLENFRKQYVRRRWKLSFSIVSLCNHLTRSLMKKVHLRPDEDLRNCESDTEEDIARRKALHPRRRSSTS
Sequence of RAC-beta serine/threonine-protein kinase (Homo sapiens) (P31751 whole entry): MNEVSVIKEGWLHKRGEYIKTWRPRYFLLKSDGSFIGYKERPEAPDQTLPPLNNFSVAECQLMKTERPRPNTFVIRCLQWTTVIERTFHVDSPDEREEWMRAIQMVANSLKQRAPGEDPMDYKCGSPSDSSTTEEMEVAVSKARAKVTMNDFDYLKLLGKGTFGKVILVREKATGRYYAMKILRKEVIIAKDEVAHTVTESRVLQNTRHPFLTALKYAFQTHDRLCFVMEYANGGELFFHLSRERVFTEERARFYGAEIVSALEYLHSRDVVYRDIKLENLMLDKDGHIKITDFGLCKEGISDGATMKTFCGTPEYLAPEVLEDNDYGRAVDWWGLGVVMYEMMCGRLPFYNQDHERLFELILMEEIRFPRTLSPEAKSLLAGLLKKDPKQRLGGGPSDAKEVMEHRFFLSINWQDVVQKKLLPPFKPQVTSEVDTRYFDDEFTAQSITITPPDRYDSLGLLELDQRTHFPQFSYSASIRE
Sequence of 5'-AMP-activated protein kinase catalytic subunit alpha-2 (Homo sapiens) (P54646 whole entry, looked up): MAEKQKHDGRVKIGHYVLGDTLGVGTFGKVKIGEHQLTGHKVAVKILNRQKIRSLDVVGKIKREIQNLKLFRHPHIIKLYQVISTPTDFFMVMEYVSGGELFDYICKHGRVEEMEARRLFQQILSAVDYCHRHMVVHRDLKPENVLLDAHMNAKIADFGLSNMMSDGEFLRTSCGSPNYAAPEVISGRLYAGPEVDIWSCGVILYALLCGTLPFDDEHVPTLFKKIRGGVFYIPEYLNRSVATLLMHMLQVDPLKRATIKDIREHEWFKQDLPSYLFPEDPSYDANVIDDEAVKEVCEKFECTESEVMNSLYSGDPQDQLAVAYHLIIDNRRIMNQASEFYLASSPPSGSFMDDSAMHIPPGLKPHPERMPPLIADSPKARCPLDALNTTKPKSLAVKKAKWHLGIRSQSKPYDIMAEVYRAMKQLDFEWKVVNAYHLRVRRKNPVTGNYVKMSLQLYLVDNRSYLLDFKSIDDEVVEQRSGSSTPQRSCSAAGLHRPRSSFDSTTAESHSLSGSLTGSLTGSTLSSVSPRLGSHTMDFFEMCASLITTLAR
Sequence of Calcium/calmodulin-dependent protein kinase type II subunit gamma (Homo sapiens) (Q13555 whole entry, the tested form may be a part): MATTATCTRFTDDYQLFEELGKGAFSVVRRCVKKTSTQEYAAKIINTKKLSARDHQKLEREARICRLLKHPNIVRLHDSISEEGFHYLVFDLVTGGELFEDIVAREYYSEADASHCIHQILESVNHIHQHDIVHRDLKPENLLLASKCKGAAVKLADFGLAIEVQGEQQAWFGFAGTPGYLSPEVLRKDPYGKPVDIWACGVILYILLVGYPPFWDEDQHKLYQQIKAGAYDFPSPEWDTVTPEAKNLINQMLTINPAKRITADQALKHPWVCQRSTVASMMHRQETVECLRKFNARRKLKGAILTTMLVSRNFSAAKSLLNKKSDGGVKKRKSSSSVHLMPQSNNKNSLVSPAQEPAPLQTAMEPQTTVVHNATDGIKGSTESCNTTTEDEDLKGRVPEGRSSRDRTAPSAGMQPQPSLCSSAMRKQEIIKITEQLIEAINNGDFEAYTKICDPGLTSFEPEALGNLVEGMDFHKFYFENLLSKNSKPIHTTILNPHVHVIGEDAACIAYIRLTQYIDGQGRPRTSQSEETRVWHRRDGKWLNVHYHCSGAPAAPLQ
Sequence of Mitogen-activated protein kinase 11 (Homo sapiens) (Q15759 whole entry): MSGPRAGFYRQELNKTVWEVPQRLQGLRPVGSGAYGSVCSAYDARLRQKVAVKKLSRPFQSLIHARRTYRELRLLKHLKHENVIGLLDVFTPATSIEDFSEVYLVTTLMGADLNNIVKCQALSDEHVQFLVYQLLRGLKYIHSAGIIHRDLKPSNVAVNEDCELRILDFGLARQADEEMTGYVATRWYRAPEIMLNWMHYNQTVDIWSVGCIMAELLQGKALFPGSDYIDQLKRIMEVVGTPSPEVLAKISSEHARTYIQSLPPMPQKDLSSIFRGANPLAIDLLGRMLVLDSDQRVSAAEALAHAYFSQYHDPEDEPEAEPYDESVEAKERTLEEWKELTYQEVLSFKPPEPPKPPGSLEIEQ
Sequence of Epidermal growth factor receptor (Homo sapiens), P00533 [UNDEFINED MUTATION] (P00533 whole entry, looked up, stated change not applied): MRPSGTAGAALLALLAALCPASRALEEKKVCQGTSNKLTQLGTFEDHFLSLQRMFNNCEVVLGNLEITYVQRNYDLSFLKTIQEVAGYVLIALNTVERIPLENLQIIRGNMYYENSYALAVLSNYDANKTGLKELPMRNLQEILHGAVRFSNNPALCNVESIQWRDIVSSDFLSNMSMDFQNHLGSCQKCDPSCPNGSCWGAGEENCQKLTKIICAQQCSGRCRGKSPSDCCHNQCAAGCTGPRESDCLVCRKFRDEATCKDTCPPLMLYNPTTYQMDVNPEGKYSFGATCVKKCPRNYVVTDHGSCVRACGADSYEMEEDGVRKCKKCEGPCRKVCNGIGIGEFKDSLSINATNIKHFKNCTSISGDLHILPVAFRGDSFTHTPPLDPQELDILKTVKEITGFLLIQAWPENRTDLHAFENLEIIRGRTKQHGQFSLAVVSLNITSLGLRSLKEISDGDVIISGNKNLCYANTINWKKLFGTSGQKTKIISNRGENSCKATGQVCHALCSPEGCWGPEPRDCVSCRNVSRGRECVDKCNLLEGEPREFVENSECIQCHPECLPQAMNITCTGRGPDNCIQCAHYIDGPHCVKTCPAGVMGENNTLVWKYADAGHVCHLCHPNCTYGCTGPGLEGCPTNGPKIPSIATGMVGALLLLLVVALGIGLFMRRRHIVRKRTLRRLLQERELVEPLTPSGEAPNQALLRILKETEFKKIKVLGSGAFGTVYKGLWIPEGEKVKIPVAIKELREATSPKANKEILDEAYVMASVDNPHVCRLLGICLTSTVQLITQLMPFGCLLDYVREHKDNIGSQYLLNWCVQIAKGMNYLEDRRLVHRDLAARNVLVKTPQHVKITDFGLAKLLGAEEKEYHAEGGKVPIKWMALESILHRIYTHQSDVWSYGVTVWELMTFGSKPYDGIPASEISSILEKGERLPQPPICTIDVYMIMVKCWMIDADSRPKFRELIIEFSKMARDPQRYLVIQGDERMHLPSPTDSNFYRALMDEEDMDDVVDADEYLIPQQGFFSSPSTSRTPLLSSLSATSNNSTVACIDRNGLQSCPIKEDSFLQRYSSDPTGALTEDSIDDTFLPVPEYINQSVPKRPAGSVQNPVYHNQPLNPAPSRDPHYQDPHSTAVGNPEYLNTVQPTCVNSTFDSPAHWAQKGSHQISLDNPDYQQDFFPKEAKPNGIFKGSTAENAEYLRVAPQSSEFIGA

With CCN1CCN(Cc2ccc(NC(=O)c3ccc(C)c(Oc4ccnc5[nH]ccc45)c3)cc2C(F)(F)F)CC1 the inhibition [1] was “inactive”, the inhibition [2] was 4% and the inhibition [3] was “inactive”. It also gave an inhibition [4] of 1.5%.

Compound CCN1CCN(Cc2ccc(NC(=O)c3ccc(C)c(/C=C/c4cnc5[nH]ccc5c4OC)c3)cc2C(F)(F)F)CC1 has an inhibition [5] of 61%, an inhibition [6] of 65% and an inhibition [7] of 74%. The inhibition [8] was 13.3%, the inhibition [9] was 79.9% and the residual activity [10] was 0.35%. It also gave a residual activity [11] of 4.6% and a percent of control [12] of 100%.

CNc1cc(Oc2cc(C(=O)Nc3cc(N4CCN(C)CC4)cc(C(F)(F)F)c3)ccc2C)ncn1 showed an inhibition [13] of 6%, an inhibition [14] of -8% and an inhibition [15] of -3.1%. The inhibition [16] was 39.1% and the inhibition [17] was 6.9%.
